Laboratory results published in patent US20210186970A1, “SELECTIVE CALCIUM CHANNEL ANTAGONISTS” (Northwestern University, priority 2011, published 2021).
Where two headings read alike, the source gives them in different places.

How the values were obtained:
[1] = target: Cav1.2 L-type Ca channels (Oryctolagus cuniculus, UniProt P15381); experiment: FLIPR Fluo-8 calcium assay, Cav1.2 channel inhibition in HEK293 cells
[2] = target: T1, Cav1.3 L-type Ca channels (Rattus norvegicus, UniProt P27732); experiment: FLIPR Fluo-8 calcium assay, Cav1.3 channel inhibition in HEK293 cells; format: cell-based; conditions: for IC50: FLIPR, HEK293, value (±SD)
T1 construct: expressed in transfected cells; host or cells: HEK293

[3] = IC50 (μM) CaV1.2, first library, FLIPR, HEK293, value (±SD)
[4] = IC50 (μM) CaV1.3, first library
[5] = first library, ratio of IC50 Cav1.2 to Cav1.3
[6] = first library, read-out: IC50 (μM) CaV1.3
[7] = IC50 (μM) Cav1.2, second library, FLIPR, HEK293, value (±SD)
[8] = IC50 (μM) Cav1.3, second library
[9] = second library, ratio of IC50 Cav1.2 to Cav1.3
[10] = IC50 (μM) Cav1.2, third library, FLIPR, HEK293, value (±SD)
[11] = IC50 (μM) Cav1.3, third library
[12] = third library, ratio of IC50 Cav1.2 to Cav1.3

T1 sequence (P27732 whole entry): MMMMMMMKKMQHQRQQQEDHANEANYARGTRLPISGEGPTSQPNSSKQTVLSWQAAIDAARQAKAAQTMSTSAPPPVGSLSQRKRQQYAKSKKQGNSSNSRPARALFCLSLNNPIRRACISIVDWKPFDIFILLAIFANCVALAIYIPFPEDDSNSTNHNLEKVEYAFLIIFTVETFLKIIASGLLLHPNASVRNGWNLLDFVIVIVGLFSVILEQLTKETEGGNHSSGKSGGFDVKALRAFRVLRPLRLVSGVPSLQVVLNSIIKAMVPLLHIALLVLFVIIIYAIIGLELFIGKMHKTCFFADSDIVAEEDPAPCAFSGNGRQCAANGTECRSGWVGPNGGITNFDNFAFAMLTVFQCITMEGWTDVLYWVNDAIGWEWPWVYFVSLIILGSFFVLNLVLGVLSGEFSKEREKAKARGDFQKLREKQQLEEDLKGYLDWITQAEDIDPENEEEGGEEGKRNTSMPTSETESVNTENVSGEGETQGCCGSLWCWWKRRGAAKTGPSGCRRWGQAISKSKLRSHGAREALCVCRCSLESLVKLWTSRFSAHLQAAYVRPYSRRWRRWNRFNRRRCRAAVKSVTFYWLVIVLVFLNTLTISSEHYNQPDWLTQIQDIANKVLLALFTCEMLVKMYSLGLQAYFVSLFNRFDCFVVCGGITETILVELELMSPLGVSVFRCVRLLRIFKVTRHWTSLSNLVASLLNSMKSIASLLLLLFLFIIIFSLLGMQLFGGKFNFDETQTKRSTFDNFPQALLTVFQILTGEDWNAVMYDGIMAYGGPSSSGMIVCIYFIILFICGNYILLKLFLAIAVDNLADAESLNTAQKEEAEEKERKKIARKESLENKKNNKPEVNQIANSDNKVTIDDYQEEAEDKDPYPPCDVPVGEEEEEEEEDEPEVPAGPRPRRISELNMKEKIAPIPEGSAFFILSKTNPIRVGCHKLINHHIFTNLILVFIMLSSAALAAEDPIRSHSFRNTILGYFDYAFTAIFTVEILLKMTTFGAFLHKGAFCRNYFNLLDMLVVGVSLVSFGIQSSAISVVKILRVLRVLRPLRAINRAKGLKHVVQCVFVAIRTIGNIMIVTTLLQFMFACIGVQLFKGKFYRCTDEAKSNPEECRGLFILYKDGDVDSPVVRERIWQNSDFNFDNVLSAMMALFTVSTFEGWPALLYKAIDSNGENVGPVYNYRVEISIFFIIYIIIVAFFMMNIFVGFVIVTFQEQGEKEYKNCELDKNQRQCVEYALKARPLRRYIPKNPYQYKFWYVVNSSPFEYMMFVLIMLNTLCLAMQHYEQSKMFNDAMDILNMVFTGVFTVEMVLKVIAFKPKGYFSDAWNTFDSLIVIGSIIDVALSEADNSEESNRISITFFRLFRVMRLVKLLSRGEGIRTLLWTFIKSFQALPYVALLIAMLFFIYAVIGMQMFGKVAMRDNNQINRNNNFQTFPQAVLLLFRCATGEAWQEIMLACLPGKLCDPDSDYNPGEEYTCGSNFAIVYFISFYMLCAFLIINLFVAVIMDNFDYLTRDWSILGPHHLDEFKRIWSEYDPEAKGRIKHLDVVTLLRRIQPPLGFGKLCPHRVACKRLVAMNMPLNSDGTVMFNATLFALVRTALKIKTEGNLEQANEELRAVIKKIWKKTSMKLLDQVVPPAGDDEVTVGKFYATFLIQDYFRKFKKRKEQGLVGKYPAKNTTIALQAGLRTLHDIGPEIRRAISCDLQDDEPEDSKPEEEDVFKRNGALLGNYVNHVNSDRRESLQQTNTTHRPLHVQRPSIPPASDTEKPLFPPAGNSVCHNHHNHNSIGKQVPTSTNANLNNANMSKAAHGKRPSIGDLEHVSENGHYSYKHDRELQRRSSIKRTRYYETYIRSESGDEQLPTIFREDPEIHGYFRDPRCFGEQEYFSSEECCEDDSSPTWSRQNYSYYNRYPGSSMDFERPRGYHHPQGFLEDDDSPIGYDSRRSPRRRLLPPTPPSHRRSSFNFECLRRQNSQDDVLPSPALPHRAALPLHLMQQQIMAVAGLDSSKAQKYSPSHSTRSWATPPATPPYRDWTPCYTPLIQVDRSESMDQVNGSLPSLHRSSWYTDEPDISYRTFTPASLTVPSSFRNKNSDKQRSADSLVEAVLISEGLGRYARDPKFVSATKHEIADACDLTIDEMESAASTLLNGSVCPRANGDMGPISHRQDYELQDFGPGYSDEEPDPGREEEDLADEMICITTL
T1 sequence (P54284 whole entry partner): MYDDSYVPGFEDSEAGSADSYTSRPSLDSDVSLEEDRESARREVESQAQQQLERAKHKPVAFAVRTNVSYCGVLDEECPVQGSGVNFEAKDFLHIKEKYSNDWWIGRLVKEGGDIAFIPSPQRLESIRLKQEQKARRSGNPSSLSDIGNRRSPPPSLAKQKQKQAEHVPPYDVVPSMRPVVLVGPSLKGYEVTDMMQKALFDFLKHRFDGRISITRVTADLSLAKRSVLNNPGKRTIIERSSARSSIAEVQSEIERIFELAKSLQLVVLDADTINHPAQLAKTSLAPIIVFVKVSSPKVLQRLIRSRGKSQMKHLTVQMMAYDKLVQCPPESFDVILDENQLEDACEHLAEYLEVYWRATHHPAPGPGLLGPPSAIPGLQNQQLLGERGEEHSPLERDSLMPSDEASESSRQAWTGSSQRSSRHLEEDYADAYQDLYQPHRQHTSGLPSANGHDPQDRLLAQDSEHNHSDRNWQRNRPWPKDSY
T1 sequence (P54289 25-956 partner limits assumed): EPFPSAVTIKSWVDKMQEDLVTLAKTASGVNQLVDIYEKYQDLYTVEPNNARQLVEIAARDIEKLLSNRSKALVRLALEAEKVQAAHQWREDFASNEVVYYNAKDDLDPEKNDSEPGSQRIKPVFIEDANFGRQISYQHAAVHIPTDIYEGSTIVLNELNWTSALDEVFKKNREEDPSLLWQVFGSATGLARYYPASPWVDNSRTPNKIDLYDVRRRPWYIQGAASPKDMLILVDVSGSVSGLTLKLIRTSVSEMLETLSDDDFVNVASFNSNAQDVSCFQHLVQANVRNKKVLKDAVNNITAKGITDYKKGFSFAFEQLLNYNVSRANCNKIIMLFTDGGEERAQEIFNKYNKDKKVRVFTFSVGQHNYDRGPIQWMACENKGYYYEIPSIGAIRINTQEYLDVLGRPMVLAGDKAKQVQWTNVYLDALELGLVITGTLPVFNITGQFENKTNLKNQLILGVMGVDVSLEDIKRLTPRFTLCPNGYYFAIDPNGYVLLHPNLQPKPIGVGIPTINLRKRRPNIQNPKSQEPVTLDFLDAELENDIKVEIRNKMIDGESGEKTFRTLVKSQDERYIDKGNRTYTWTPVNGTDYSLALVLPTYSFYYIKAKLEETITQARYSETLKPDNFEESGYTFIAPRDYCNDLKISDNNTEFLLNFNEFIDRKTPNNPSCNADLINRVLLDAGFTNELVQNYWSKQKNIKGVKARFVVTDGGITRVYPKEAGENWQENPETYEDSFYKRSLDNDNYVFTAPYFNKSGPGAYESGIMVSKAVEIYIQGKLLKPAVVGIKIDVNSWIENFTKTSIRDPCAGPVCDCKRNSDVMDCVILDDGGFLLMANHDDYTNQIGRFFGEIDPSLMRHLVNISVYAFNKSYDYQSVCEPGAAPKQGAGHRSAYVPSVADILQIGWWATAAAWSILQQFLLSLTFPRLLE
T1 sequence (P54289 957-1103 partner limits assumed): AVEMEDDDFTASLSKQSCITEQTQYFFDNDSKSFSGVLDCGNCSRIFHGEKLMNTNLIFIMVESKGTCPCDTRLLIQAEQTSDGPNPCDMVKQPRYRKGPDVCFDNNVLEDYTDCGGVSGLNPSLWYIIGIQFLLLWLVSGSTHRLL

O=C1CC(=O)N(CCc2cccc(F)c2)C(=O)N1CCCc1ccccc1 [Compound 56] was tested, and the IC50 [1, 3] was 2.5 µM, the IC50 [2, 4] was 1.6 µM and the Selectivity [2, 5] was 1.5.

Molecule O=C1CC(=O)N(Cc2cccc([N+](=O)[O-])c2)C(=O)N1CCCc1ccccc1 [Compound 57] has an IC50 [1, 3] of 13 µM, an IC50 [2, 4] of 16.5 µM and a Selectivity [2, 5] of 0.8.

In the case of O=C1CC(=O)N(CCc2cccc([N+](=O)[O-])c2)C(=O)N1CCCc1ccccc1 [Compound 58], the IC50 [1, 3] is reported as 9.5 µM, the IC50 [2, 4] is reported as 10.4 µM and the Selectivity [2, 5] is reported as 0.9.

In the case of O=C1CC(=O)N(Cc2ccc(Cl)cc2)C(=O)N1CCCc1ccccc1 [Compound 59], the IC50 [1, 3] is reported as 26 µM, the IC50 [2, 4] is reported as 21.9 µM and the Selectivity [2, 5] is reported as 1.2.

CCCCCCCCN1C(=O)CC(=O)N(CCCc2ccccc2)C1=O [Compound 60] gave an IC50 [1, 3] of 2.6 µM, an IC50 [2, 6] of 1.1 µM and a Selectivity [2, 5] of 2.5.

O=C1CC(=O)N(CCc2ccc3ccccc3c2)C(=O)N1CCCc1ccccc1 [Compound 61] showed an IC50 [1, 3] of 1.2 µM, an IC50 [2, 4] of 1 µM and a Selectivity [2, 5] of 1.3.

O=C1CC(=O)N(CCc2ccc3ccccc3c2)C(=O)N1CCc1ccc2ccccc2c1 [Compound 62] gave an IC50 [1, 3] of 1.8 µM, an IC50 [2, 4] of 2.9 µM and a Selectivity [2, 5] of 0.6.

O=C1CC(=O)N(CCc2ccc3ccccc3c2)C(=O)N1CCc1ccc(Cl)c(Cl)c1 [Compound 63] gave an IC50 [1, 3] of 3.8 µM, an IC50 [2, 4] of 4 µM and a Selectivity [2, 5] of 1.0.

In the case of O=C1CC(=O)N(CCc2ccc3ccccc3c2)C(=O)N1CCc1ccc(F)cc1 [Compound 64], the IC50 [1, 3] is reported as 3.8 µM, the IC50 [2, 4] is reported as 1.8 µM and the Selectivity [2, 5] is reported as 2.1.

Molecule O=C1CC(=O)N(Cc2cccc([N+](=O)[O-])c2)C(=O)N1CCc1ccc2ccccc2c1 [Compound 65] has an IC50 [1, 3] of 5 µM, an IC50 [2, 4] of 4.8 µM and a Selectivity [2, 5] of 1.0.

O=C1CC(=O)N(Cc2ccc(Cl)cc2)C(=O)N1CCc1ccc2ccccc2c1 [Compound 66] was tested, and the IC50 [1] was 2.4 µM and the IC50 [2, 4] was 1.7 µM.

For CCCCCCCCN1C(=O)CC(=O)N(CCc2ccc3ccccc3c2)C1=O [Compound 67], the IC50 [1, 3] was 8.9 µM, the IC50 [2, 6] was 1.9 µM and the Selectivity [2, 5] was 4.8.

O=C1CC(=O)N(C2CCCCC2)C(=O)N1CCc1ccc(F)cc1 [Compound 68] was tested, and the IC50 [1, 3] was 166 µM, the IC50 [2, 4] was 9.4 µM and the Selectivity [2, 5] was 17.7.

In the case of Cc1ccc(CCN2C(=O)CC(=O)N(C3CCCCC3)C2=O)cc1 [Compound 74], the IC50 [1, 7] is reported as 6.1 µM, the IC50 [2, 8] is reported as 1.8 µM and the Selectivity [2, 9] is reported as 3.4.

In the case of O=C1CC(=O)N(C2CCCCC2)C(=O)N1CCc1ccccc1Cl [Compound 76], the IC50 [1, 7] is reported as 44.5 µM, the IC50 [2, 8] is reported as 5.2 µM and the Selectivity [2, 9] is reported as 7.7.

Molecule O=C1CC(=O)N(C2CCCCC2)C(=O)N1CCc1ccc(Br)cc1 [Compound 77] has an IC50 [1, 7] of 21.3 µM, an IC50 [2, 8] of 0.8 µM and a Selectivity [2, 9] of 26.4.

N#Cc1ccc(CCN2C(=O)CC(=O)N(C3CCCCC3)C2=O)cc1 [Compound 78] was tested, and the IC50 [1, 7] was 56 µM, the IC50 [2, 8] was 49.8 µM and the Selectivity [2, 9] was 1.1.

N#Cc1cccc(CCN2C(=O)CC(=O)N(C3CCCCC3)C2=O)c1 [Compound 79] showed an IC50 [1, 7] of 36.5 µM, an IC50 [2, 8] of 10.5 µM and a Selectivity [2, 9] of 3.5.

COc1ccc(CN2C(=O)CC(=O)N(C3CCCCC3)C2=O)cc1 [Compound 81] was tested, and the IC50 [1, 7] was 67.8 µM, the Selectivity [2] was 2.1 and the IC50 [2, 8] was 32.2 µM.

For O=C1CC(=O)N(C2CCCCC2)C(=O)N1Cc1ccc(Cl)cc1 [Compound 82], the IC50 [1, 7] was 119 µM, the Selectivity [2] was 14.7 and the IC50 [2, 8] was 8.1 µM.

O=C1CC(=O)N(C2CCCCC2)C(=O)N1Cc1cccc([N+](=O)[O-])c1 [Compound 83] gave an IC50 [1, 7] of 59.5 µM, an IC50 [2, 8] of 48.2 µM and a Selectivity [2, 9] of 1.2.

With O=C1CC(=O)N(C2CCCCC2)C(=O)N1CCCc1ccccc1 [Compound 84] the IC50 [1, 7] was 30.5 µM, the IC50 [2, 8] was 6.3 µM and the Selectivity [2, 9] was 4.9.

Molecule O=C1CC(=O)N(C2CCc3ccccc32)C(=O)N1C1CCCCC1 (centres unmarked) [Compound 85] has an IC50 [1, 7] of 19.2 µM, an IC50 [2, 8] of 16.4 µM and a Selectivity [2, 9] of 1.2.

In the case of O=C1CC(=O)N(C2CCCCC2)C(=O)N1CCOc1ccccc1 [Compound 88], the IC50 [1, 7] is reported as 11.8 µM, the IC50 [2, 8] is reported as 9.5 µM and the Selectivity [2, 9] is reported as 1.2.

For O=C(O)c1cccc(CCN2C(=O)CC(=O)N(C3CCCCC3)C2=O)c1 [Compound 89], the IC50 [1, 7] was 64.7 µM, the IC50 [2, 8] was 73 µM and the Selectivity [2, 9] was 0.9.

O=C1CC(=O)N(C2CCCCCC2)C(=O)N1CCc1cccc(C(F)(F)F)c1 [Compound 90] was tested, and the IC50 [1, 10] was 5.7 µM, the IC50 [2, 11] was 1.7 µM and the Selectivity [2, 12] was 3.4.

Molecule O=C1CC(=O)N(C2CCCCCC2)C(=O)N1CCc1cccc(Cl)c1 [Compound 91] has an IC50 [1, 10] of 45.6 µM, an IC50 [2, 11] of 2.5 µM and a Selectivity [2, 12] of 18.5.

O=C1CC(=O)N(C2CCCCCC2)C(=O)N1CCc1ccc(Cl)cc1 [Compound 92] gave an IC50 [1, 10] of 32.8 µM, an IC50 [2, 11] of 2.2 µM and a Selectivity [2, 12] of 15.0.

For Cc1cccc(CCN2C(=O)CC(=O)N(C3CCCCCC3)C2=O)c1 [Compound 93], the IC50 [1, 10] was 30.7 µM, the IC50 [2, 11] was 13.2 µM and the Selectivity [2, 12] was 2.3.

For Cc1ccc(CCN2C(=O)CC(=O)N(C3CCCCCC3)C2=O)cc1 [Compound 94], the IC50 [1, 10] was 14.9 µM, the IC50 [2, 11] was 0.9 µM and the Selectivity [2, 12] was 16.0.

Cc1cccc(CCN2C(=O)CC(=O)N(C3CCCC3)C2=O)c1 [Compound 97] showed an IC50 [1, 10] of 52.1 µM, an IC50 [2, 11] of 1.1 µM and a Selectivity [2, 12] of 49.1.

Cc1ccc(CCN2C(=O)CC(=O)N(C3CCCC3)C2=O)cc1 [Compound 98] was tested, and the IC50 [1, 10] was 35.8 µM, the IC50 [2, 11] was 1.7 µM and the Selectivity [2, 12] was 20.7.

In the case of O=C1CC(=O)N(C2CCC2)C(=O)N1CCc1cccc(Cl)c1 [Compound 99], the IC50 [1] is reported as 14.6 µM, the IC50 [2, 11] is reported as 2.7 µM and the Selectivity [2, 12] is reported as 5.4.

In the case of O=C1CC(=O)N(C2CCC2)C(=O)N1CCc1ccc(Cl)cc1 [Compound 100], the IC50 [1, 10] is reported as 4.9 µM, the IC50 ([2]; third library, read-out: IC50 (μM) Cav1.3) is reported as 1.8 µM and the Selectivity [2, 12] is reported as 2.8.

O=C1CC(=O)N(C2CC2)C(=O)N1CCc1cccc(Cl)c1 [Compound 101] showed an IC50 [1] of 5.4 µM, an IC50 [2, 11] of 26.8 µM and a Selectivity [2, 12] of 0.2.

O=C1CC(=O)N(C2CC2)C(=O)N1CCc1ccc(Cl)cc1 [Compound 102] showed an IC50 [1] of 5 µM, an IC50 [2, 11] of 19.6 µM and a Selectivity [2, 12] of 0.3.

O=C1CC(=O)N(c2cccc(F)c2)C(=O)N1CCc1cccc(Cl)c1 [Compound 103] was tested, and the IC50 [1, 10] was 9.7 µM, the IC50 [2, 11] was 18.6 µM and the Selectivity [2, 12] was 0.5.

For CC(C)(C)N1C(=O)CC(=O)N(CCc2cccc(Cl)c2)C1=O [Compound 105], the IC50 [1] was 7.2 µM, the IC50 [2, 11] was 10.5 µM and the Selectivity [2, 12] was 0.7.

For CC(C)(C)N1C(=O)CC(=O)N(CCc2cccc(C(F)(F)F)c2)C1=O [Compound 106], the IC50 [1, 10] was 6.1 µM, the IC50 [2, 11] was 1.1 µM and the Selectivity [2, 12] was 5.7.

For CCC(C)N1C(=O)CC(=O)N(CCc2cccc(Cl)c2)C1=O (centres unmarked) [Compound 107], the IC50 [1] was 45.4 µM, the IC50 [2, 11] was 1.9 µM and the Selectivity [2, 12] was 23.6.

For CCC(C)N1C(=O)CC(=O)N(CCc2cccc(C(F)(F)F)c2)C1=O (centres unmarked) [Compound 108], the IC50 [1, 10] was 35.9 µM, the IC50 [2, 11] was 3.4 µM and the Selectivity [2, 12] was 10.5.

O=C1CC(=O)N(CC2CCCCC2)C(=O)N1CCc1cccc(Cl)c1 [Compound 109] was tested, and the IC50 [1, 10] was 44.6 µM, the IC50 [2, 11] was 1.5 µM and the Selectivity [2, 12] was 30.5.

Molecule O=C1CC(=O)N(CC2CCCCC2)C(=O)N1CCc1ccc(Cl)cc1 [Compound 110] has an IC50 [1, 10] of 46.8 µM, an IC50 [2, 11] of 1.7 µM and a Selectivity [2, 12] of 27.3.

O=C1CC(=O)N(CC2CCCCC2)C(=O)N1CCc1cccc(C(F)(F)F)c1 [Compound 111] was tested, and the IC50 [1, 10] was 20.4 µM, the IC50 [2, 11] was 0.9 µM and the Selectivity [2, 12] was 22.1.
